In one assay the test system is E. coli S30 extract. The experiment in a line: E. coli S30 extract: inhibition of bacterial protein synthesis (luciferase). The assay is classed as biochemical. As to conditions: 37° C. 1 hour. The method, then: E. coli S30 extract: Inhibition of bacterial protein synthesis was determined using the E. coli S30 Extract System for Circular DNA (Promega catalog #L-2010) and Luciferase Assay Reagent (Promega catalog #E1500) with slight modifications to a published protocol. Fyfe, C., Sutcliffe, J. A. and Grossman, T. H. (2012) “Development and characterization of a Pseudomonas aeruginosa in vitro coupled transcription-translation assay system for evaluation of translation inhibitors” J. Microbiol. Methods 90(3), 256-261.
Compounds were serial diluted in 0.5 mL microcentrifuge tubes by mixing and transferring 50 μL from the highest concentration to 50 μL of water, mixing and transferring 50 μL of this 2-fold dilution to 50 μL of water. This mixing and transferring was repeated so that there are a total of 8 tubes with serial dilutions of compound at 10× the desired screening concentration that are ultimately diluted to 1× by the addition of S30 luciferase synthesis mixture. Serial dilutions of compounds were added (2 μL) to wells in a black round bottom 96-well plate. Water (2 μL) was used as a “no inhibitor” control in 4 wells/plate. No DNA control reaction mixture (20 μL; see below) was used as a control in 4 wells/plate for background luminescence. S30 luciferase synthesis mixture (18 μL; see below) was added to wells with compounds or water mixture and incubated at 37° C. for 1 hour. Reactions were stopped by transferring to 4° C. refrigerator for 5 minutes then 25 μL of luciferase activity mix was added. Luminescence was measured using a BioTek Synergy HTX plate reader. % Inhibition was determined relative to no inhibitor controls.
• 445 μL S30 extract, circular • 712 μL S30 Premix without amino acids • 4.45 μL pBESTluc™ DNA (1 μg/μL) • 78 μL complete amino acid mixture • 267 μL water
• 20 μL S30 extract, circular • 32 μL S30 Premix without amino acids • 7 μL complete amino acid mixture • 21 μL water

In assay [1] the target is Rabbit Reticulocyte Lysate. Put plainly: Rabbit Reticulocyte Lysate: inhibition of eukaryotic protein synthesis (luciferase). As to conditions: 30° C. 90 minutes, read-out: Retic. IC50. The assay is classed as biochemical. The method, then: Inhibition of eukaryotic protein synthesis was determined using the Rabbit Reticulocyte Lysate System, Nuclease-Treated from Promega (catalog #L-4960) with slight modifications to the manufacturer's protocol. Compounds were serial diluted in 0.5 mL microcentrifuge tubes by mixing and transferring 50 μL from the highest concentration to 50 μL of water, mixing and transferring 50 μL of this 2-fold dilution to 50 μL of water. This mixing and transferring was repeated so that there are a total of 8 tubes with serial dilutions of compound at 10× the desired screening concentration that are ultimately diluted to 1× by the addition of rabbit reticulocyte luciferase synthesis mixture. Serial dilutions of compounds were added ([…]) to wells in a black round bottom 96-well plate. Water (2.5 μL) was used as a “no inhibitor” control in 4 wells/plate. No RNA control reaction mixture ([…]; see below) was used as a control in 4 wells/plate for background luminescence. Rabbit reticulocyte luciferase synthesis mixture (22.5 μL; see below) was added to wells with compounds or water mixture and incubated at 30° C. for 90 minutes. Luciferase assay reagent (25 μL) was added with luminescence measured using a BioTek Synergy HTX plate reader. % Inhibition was determined relative to no inhibitor controls.
• 1,000 μL rabbit reticulocyte lysate • 5.7 μL Luciferase Control RNA (1 μg/μL) • 26 μL complete amino acid mixture • 395 μL water
• 70 μL rabbit reticulocyte lysate • 2 μL complete amino acid mixture • 28 μL water

Another assay has as its system E. faecalis (Ef). Put plainly: Broth microdilution MIC, E. faecalis. In kind it is cell-based. The settings on record: Enterococcus faecalis, read-out: Ef + bicarb 25 (MIC). How it is done: (§1) A certified BSL-2 laboratory was used for testing. Compounds were evaluated using the broth microdilution minimum inhibitory concentration (MIC) and minimum bactericidal concentration (MBC) assays defined by Clinical and Laboratory Standards Institute (CLSI) in the M26-A guideline against S. aureus (Sa), E. coli (Ec), K. pneumoniae (Kp), A. baumannii (Ab), E. faecalis (Ef) and P. aeruginosa (Pa).
(§2) MICs were determined using the Clinical Laboratory and Standards Institute (CLSI) Broth Microdilution Method with slight modification. Clinical and Laboratory Standards Institute (2012). “Methods for dilution antimicrobial susceptibility tests for bacteria that grow aerobically; approved standard, 9th ed. M07-A9. Clinical and Laboratory Standards Institute, Wayne, PA.” Serial two-fold dilutions of compounds are prepared in sterile clear round-bottom 96-well plates.
(§3) To prepare microdilution trays, two-fold dilutions of antimicrobial agent are prepared in growth medium: Cation-Adjusted Mueller-Hinton Broth (CAMHB), or CAMHB supplemented with sodium bicarbonate (25 mM final concentration prepared from a 1.0 M stock solution) or CAMHB supplemented with heat inactivated human serum (Fisher Cat. #BP2657100) 0-50% by adding 200 μL of the highest concentration to be tested (64 μg/mL, for example) in row A, mixing and transferring 100 μL from row A to 100 μL growth medium in row B, then repeating the mixing and transferring through row H of the 96-well plate, discarding the excess 100 μL remaining. This slight modification to the CLSI protocol enables evaluation of MICs for 3 compounds per plate in triplicate, albeit with only 8 compound dilutions (CLSI protocol enables 2 compounds in triplicate with 10 dilutions). Bacterial suspensions are added to a final concentration of 5×10^4 CFU/well by adding 5 μL of a 1:10 dilution of a 0.5 McFarland suspension (1×10^8 CFU/mL) for each bacterium evaluated. Bacterial suspensions were prepared using the growth method described by CLSI. Well-isolated colonies (3-5 from an agar plate) were selected using a sterile loop and used to inoculate a tube containing 4 mL of CAMHB. The cultures are incubated at 35±2° C. until it achieves or exceeds the turbidity of the 0.5 McFarland standard, determined by measuring A600nm (usually two to six hours). When growth exceeds a 0.5 McFarland standard, the turbidity is adjusted with broth to be equivalent to a 0.5 McFarland standard.
In general terms: Broth dilution looks for growth in wells or tubes with falling amounts of substance.

The next assay relates to A. baumannii (Ab). Put plainly: Broth microdilution MIC, A. baumannii. The settings on record: Acinetobacter baumannii, read-out: Ab + bicarb 25 (MIC). The assay is classed as cell-based. How it is done:
as §1, §2, §3

A further assay has as its system S. aureus (Sa). The experiment in a line: Broth microdilution MIC, S. aureus. In kind it is cell-based. As to conditions: Staphylococcus aureus, read-out: Sa + bicarb 25 (MIC). How it is done:
as §1, §2, §3

The subject of the next assay is P. aeruginosa (Pa). The experiment in a line: Broth microdilution MIC, P. aeruginosa. As to conditions: Pseudomonas aeruginosa, read-out: Pa + bicarb 25 (MIC). The assay is classed as cell-based. The method, then:
as §1, §2, §3

Structures are written as SMILES. Where a name gives a salt, the structure may show the parent alone.

For orientation: IC50 means the concentration that gives 50% inhibition. In the case of `CC(C)(N)C(=O)N1CCN(C(=O)Nc2ccn(C3=CCC(CN4CC5CC5(N)C4)CC3)c(=O)n2)CC1` (stereo not shown) [Compound 29, 4-(2-Amino-2-methylpropanoyl)-N-(1-(4-((1-amino-3-azabicyclo [3.1.0]hexan-3-yl)methyl)cyclohex-1-en-1-yl)-2-oxo-1,2-dihydropyrimidin-4-yl)piperazine-1-carboxamide hydrochloride salt], in the assay with E. coli S30 extract, the IC50 lay in the range of 500 to 1000 nM.

The MIC is the least concentration at which growth counts as inhibited. As for `CC1(N)CCN(CC2CCC(n3ccc(NC(=O)N4CCN(C(=O)C(C)(C)N)CC4)nc3=O)CC2)CC1` (stereo not shown) [Compound 15, 4-(2-amino-2-methylpropanoyl)-N-(1-(4-((4-amino-4-methylpiperidin-1-yl)methyl)cyclohexyl)-2-oxo-1,2-dihydropyrimidin-4-yl)piperazine-1-carboxamide hydrochloride salt], the IC50 in assay [1] is not below 1000 nM; in the assay with E. coli S30 extract, less than 500 nM. Moreover, the MIC in the assay with E. faecalis (Ef) and in the assay on A. baumannii (Ab) was more than 32 µg/mL throughout.

For `CC(C)(N)C(=O)N1CCN(C(=O)Nc2ccn(C3=CCC(CN4C[C@@H]5[C@@H](N)[C@@H]5C4)CC3)c(=O)n2)CC1` (single isomer, unassigned) [Compound 34, 4-(2-Amino-2-methylpropanoyl)-N-(1-(4-(((exo)-6-amino-3-azabicyclo[3.1.0]hexan-3-yl)methyl)cyclohex-1-en-1-yl)-2-oxo-1,2-dihydropyrimidin-4-yl)piperazine-1-carboxamide hydrochloride salt], the IC50 in assay [1] is not below 1000 nM; with E. coli S30 extract, less than 500 nM.

On to `CC(C)(N)C(=O)N1CCN(C(=O)Nc2ccn(C3=CCC(CN[C@H]4CC[C@H](N)CC4)CC3)c(=O)n2)CC1` (single isomer, unassigned) [Compound 40, trans-4-(2-Amino-2-methylpropanoyl)-N-(1-(4-(((4-aminocyclohexyl)amino)methyl)cyclohex-1-en-1-yl)-2-oxo-1,2-dihydropyrimidin-4-yl)piperazine-1-carboxamide hydrochloride salt], for which the half-inhibitory concentration (IC50) was not below 1000 nM in assay [1] and less than 500 nM in the assay with E. coli S30 extract.

`CC(C)(N)C(=O)N1CCN(C(=O)Nc2ccn(C3=CCC(CN4C[C@@H]5[C@H](N)[C@@H]5C4)CC3)c(=O)n2)CC1` (stereo partly drawn) [Compound 22, endo-4-(2-Amino-2-methylpropanoyl)-N-(1-(4-((6-amino-3-azabicyclo[3.1.0]hexan-3-yl)methyl)cyclohex-1-en-1-yl)-2-oxo-1,2-dihydropyrimidin-4-yl)piperazine-1-carboxamide hydrochloride salt]: the IC50 in assay [1] was not below 1000 nM; with E. coli S30 extract it was less than 500 nM. The MIC with E. faecalis (Ef) was 8 to 32 µg/mL; in the assay on S. aureus (Sa), less than 8 µg/mL; in the assay on A. baumannii (Ab), less than 8 µg/mL; in the assay on P. aeruginosa (Pa) it was more than 32 µg/mL.

For the molecule `CC(C)(N)C(=O)N1CCN(C(=O)Nc2ccn(C3=CCC(CN4CCCC(N)CC4)CC3)c(=O)n2)CC1` (single isomer, unassigned) [Compound 42, 4-(2-Amino-2-methylpropanoyl)-N-(1-(4-((4-aminoazepan-1-yl)methyl)cyclohex-1-en-1-yl)-2-oxo-1,2-dihydropyrimidin-4-yl)piperazine-1-carboxamide hydrochloride salt], the values for the IC50 (in assay [1]; in the assay on E. coli S30 extract) were not below 1000 nM and less than 500 nM, respectively.

As to `CC(C)(N)C(=O)N1CCN(C(=O)Nc2ccn(C3CCC(CN4CC(N)C4)CC3)c(=O)n2)CC1` (stereo not shown) [Compound 10, 4-(2-Amino-2-methylpropanoyl)-N-(1-(4-((3-aminoazetidin-1-yl)methyl)cyclohexyl)-2-oxo-1,2-dihydropyrimidin-4-yl)piperazine-1-carboxamide hydrochloride salt], the IC50 (in assay [1]; in the assay with E. coli S30 extract) was not below 1000 nM in each case.

`CC1(N)CCN(CC2CC=C(n3ccc(NC(=O)N4CCN(C(=O)C(C)(C)N)CC4)nc3=O)CC2)CC1` (single isomer, unassigned) [Compound 38, 4-(2-Amino-2-methylpropanoyl)-N-(1-(4-((4-amino-4-methylpiperidin-1-yl)methyl)cyclohex-1-en-1-yl)-2-oxo-1,2-dihydropyrimidin-4-yl)piperazine-1-carboxamide hydrochloride salt]: the values for the IC50 (in assay [1]; in the assay with E. coli S30 extract) were not below 1000 nM and less than 500 nM, respectively.

In the case of `CC1(N)CCN(CC2CC=C(n3ccc(NC(=O)N4CCN(C(=O)C(C)(C)N)CC4)nc3=O)CC2)CC1` (stereo not shown) [Compound 27, 4-(2-Amino-2-methylpropanoyl)-N-(1-(4-((4-amino-4-methylpiperidin-1-yl)methyl)cyclohex-1-en-1-yl)-2-oxo-1,2-dihydropyrimidin-4-yl)piperazine-1-carboxamide hydrochloride salt], the IC50 in assay [1] is not below 1000 nM; in the assay on E. coli S30 extract it was less than 500 nM. Also, the MIC in the assay on E. faecalis (Ef) is less than 8 µg/mL; in the assay with S. aureus (Sa), less than 8 µg/mL; with A. baumannii (Ab) it was 8 to 32 µg/mL; with P. aeruginosa (Pa), more than 32 µg/mL.

As to `CC(C)(N)C(=O)N1CCN(C(=O)Nc2ccn(C3=CCC(CN4CCC(N)CC4)CC3)c(=O)n2)CC1` (stereo not shown) [Compound 28, 4-(2-Amino-2-methylpropanoyl)-N-(1-(4-((4-aminopiperidin-1-yl)methyl)cyclohex-1-en-1-yl)-2-oxo-1,2-dihydropyrimidin-4-yl)piperazine-1-carboxamide hydrochloride salt], the IC50 was not below 1000 nM in assay [1] and 500 to 1000 nM in the assay with E. coli S30 extract. Also, the MIC with E. faecalis (Ef) and in the assay on A. baumannii (Ab) was more than 32 µg/mL each time.

The values are drawn from patent US20250084041A1, “ANTIMICROBIAL COMPOUNDS AND METHODS” (Curza Global, LLC, priority 2021, published 2025).
